Experimental data taken from ChEMBL document CHEMBL5046315, “CRCM5484: A BET-BDII Selective Compound with Differential Anti-leukemic Drug Modulation” (J Med Chem, 2022).
Active and inactive are the calls of the source. The calls are words filed in the database; no cut-off is given here.

Key:
[1] = biological target: T1, Bromodomain-containing protein 3 (Homo sapiens, UniProt Q15059); assay: Inhibition of BRD3-BD2 (unknown origin) incubated for 6 hrs by HTRF method
[2] = biological target: T1, Bromodomain-containing protein 3; assay: Inhibition of BRD3-BD1 domain (unknown origin) incubated for 6 hrs by HTRF method
Homo sapiens [3] = organism: Homo sapiens; assay: Selectivity ratio of IC50 for BRD3-BD1 (unknown origin) to IC50 for BRD3-BD2 (unknown origin)
[4] = biological target: T2, Bromodomain-containing protein 4 (Homo sapiens, UniProt O60885); assay: Inhibition of BRD4-BD2 (unknown origin) incubated for 6 hrs by HTRF method
Homo sapiens [5] = organism: Homo sapiens; assay: Selectivity ratio of IC50 for BRD4-BD1 (unknown origin) to IC50 for BRD4-BD2 (unknown origin)
[6] = biological target: T3, Bromodomain-containing protein 2 (Homo sapiens, UniProt P25440); assay: Inhibition of BRD2-BD2 (unknown origin) incubated for 6 hrs by HTRF method
T3 sequence (P25440 whole entry): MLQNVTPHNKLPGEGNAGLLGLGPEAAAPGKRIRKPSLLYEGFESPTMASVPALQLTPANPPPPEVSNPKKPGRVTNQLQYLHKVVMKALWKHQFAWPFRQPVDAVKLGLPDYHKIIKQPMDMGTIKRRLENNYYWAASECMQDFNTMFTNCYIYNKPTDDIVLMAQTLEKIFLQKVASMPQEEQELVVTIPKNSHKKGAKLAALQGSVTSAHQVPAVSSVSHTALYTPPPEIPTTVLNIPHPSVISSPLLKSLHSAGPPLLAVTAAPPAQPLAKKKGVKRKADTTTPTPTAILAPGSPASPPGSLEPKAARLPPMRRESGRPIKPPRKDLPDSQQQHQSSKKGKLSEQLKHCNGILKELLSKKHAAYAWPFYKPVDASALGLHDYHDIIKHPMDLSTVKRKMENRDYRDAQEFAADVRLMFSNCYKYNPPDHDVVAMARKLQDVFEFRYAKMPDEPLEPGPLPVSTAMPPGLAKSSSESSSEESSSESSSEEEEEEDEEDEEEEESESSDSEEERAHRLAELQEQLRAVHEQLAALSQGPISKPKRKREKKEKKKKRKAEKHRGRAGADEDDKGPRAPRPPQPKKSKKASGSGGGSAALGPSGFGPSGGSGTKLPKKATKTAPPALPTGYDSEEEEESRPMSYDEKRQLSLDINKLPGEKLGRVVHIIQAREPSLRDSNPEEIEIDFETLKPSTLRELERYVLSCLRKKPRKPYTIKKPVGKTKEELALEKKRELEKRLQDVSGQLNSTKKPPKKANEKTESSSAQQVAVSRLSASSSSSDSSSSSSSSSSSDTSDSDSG

[7] = biological target: T3, Bromodomain-containing protein 2; assay: Binding affinity to human partial length BRD2-BD2 (E348 to D455) expressed in bacterial system assessed as dissociation constant by BROMOscan method
[8] = biological target: T1, Bromodomain-containing protein 3; assay: Binding affinity to human partial length BRD3-BD2 (G306 to P416) expressed in bacterial system assessed as dissociation constant by BROMOscan method
[9] = biological target: T2, Bromodomain-containing protein 4; assay: Binding affinity to human partial length BRD4-BD2 (K333 to E460 residues) expressed in bacterial system assessed as dissociation constant by BROMOscan method
[10] = biological target: T2, Bromodomain-containing protein 4; assay: Inhibition of BRD4-BD1 (unknown origin) incubated for 6 hrs by HTRF method
MOLM-14 [11] = assay: Downregulation of Myc expression in human MOLM-14 cells incubated for 2 hrs by RT-PCR analysis; type: functional, cell-based; settings: dose 5.0 µM
NB-4 = assay: Cytotoxicity against human NB-4 cells assessed as reduction in cell viability incubated for 72 hrs; type: functional, cell-based; settings: NB-4, 72 h
K562 [12] = assay: Cytotoxicity against human K562 cells assessed as reduction in cell viability incubated for 72 hrs; type: functional, cell-based; settings: K562, 72 h
CCRF-CEM = assay: Cytotoxicity against human CCRF-CEM cells assessed as reduction in cell viability incubated for 72 hrs; type: functional, cell-based
MOLM-14 [13] = assay: cells; settings: Homo sapiens, MOLM-14, 72 h
Description: Cytotoxicity against human MOLM-14 cells assessed as reduction in cell viability incubated for 72 hrs

[14] = biological target: T1, Bromodomain-containing protein 3; assay: Inhibition of BRD3-BD1 (unknown origin) assessed as dissociation constant by TR-FRET method
K562 [15] = assay: Inhibition of IFNgamma induced MHC-1 expression in human K562 cells treated for 48 hrs by flow cytometric analysis; type: functional, cell-based; settings: dose 0.2-20 µM
[16] = biological target: T2, Bromodomain-containing protein 4; assay: Inhibition of BRD4-BD1 (unknown origin) (N44 to E168 residues) expressed in bacterial expression system assessed as dissociation constant by BROMOscan method
[17] = biological target: T2, Bromodomain-containing protein 4; assay: Inhibition of BRD4-BD2 (unknown origin) (K333 to E460 residues) expressed in bacterial system assessed as dissociation constant by BROMOscan method

T1 sequence (Q15059 whole entry, the tested form may be a part): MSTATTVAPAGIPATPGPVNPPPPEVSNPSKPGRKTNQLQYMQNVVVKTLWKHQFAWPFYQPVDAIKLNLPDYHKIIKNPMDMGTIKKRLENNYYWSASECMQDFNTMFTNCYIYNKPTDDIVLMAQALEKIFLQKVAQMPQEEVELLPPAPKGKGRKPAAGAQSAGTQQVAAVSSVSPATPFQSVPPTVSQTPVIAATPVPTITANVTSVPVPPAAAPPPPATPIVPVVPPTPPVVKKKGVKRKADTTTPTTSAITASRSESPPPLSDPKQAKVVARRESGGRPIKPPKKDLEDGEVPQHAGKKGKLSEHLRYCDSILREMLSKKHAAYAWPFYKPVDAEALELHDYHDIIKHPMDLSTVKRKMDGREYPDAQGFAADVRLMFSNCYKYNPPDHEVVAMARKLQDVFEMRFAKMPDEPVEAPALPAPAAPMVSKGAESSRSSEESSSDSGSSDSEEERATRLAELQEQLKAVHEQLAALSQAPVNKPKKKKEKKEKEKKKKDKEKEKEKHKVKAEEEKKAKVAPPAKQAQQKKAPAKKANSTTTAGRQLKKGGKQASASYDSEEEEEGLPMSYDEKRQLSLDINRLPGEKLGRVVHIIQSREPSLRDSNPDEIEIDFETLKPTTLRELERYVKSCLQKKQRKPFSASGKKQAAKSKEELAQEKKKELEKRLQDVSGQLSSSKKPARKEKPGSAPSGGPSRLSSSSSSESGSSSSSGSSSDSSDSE

SMILES: CC(=O)N1CCc2c(sc3nc(SCC(=O)Nc4cc(Cl)ccc4C)n(-c4ccc(C)o4)c(=O)c23)C1
- IC50 [1]: 410 nM
- IC50 [2]: 7800 nM
- Ratio IC50 (Homo sapiens [3]): 19

SMILES: CC(=O)N1CCc2c(sc3nc(SCC(=O)Nc4ccc(C)cc4)n(Cc4ccco4)c(=O)c23)C1
- IC50 [1]: 630 nM
- IC50 [2]: 3200 nM
- Ratio IC50 (Homo sapiens [3]): 5

SMILES: COc1cccc(NC(=O)CSc2nc3sc4c(c3c(=O)n2Cc2ccco2)CCN(C(C)=O)C4)c1
- IC50 [1]: 300 nM
- IC50 [2]: 14000 nM
- Ratio IC50 (Homo sapiens [3]): 9

SMILES: CCC(=O)N1CCc2c(sc3[nH]c(=O)n(C4CCCCC4)c(=O)c23)C1
- IC50 [2]: > 25000 nM

SMILES: CC(=O)c1cccc(NC(=O)CSc2nc3sc4c(c3c(=O)n2Cc2ccco2)CCN(C(C)=O)C4)c1
- IC50 [1]: 170 nM
- IC50 [2]: 4100 nM
- Ratio IC50 (Homo sapiens [3]): 9

SMILES: CC(=O)N1CCc2c(sc3nc(SCC(=O)Nc4cc(Cl)ccc4C)n(Cc4ccco4)c(=O)c23)C1
- IC50 [4]: 900 nM
- Ratio IC50 (Homo sapiens [5]): 4.4
- IC50 [1]: 85 nM
- IC50 [6]: 120 nM
- IC50 [7]: 2600 nM
- IC50 [8]: 325 nM
- IC50 [9]: 775 nM
- IC50 [2]: 8500 nM

SMILES: CC(=O)N1CCc2c(sc3nc(SCC(=O)Nc4ccc(F)c(F)c4)n(Cc4ccco4)c(=O)c23)C1
- IC50 [1]: 470 nM
- IC50 [2]: 4900 nM
- Ratio IC50 (Homo sapiens [3]): 8

SMILES: CC(=O)N1CCc2c(sc3nc(SCC(=O)Nc4cc(F)ccc4F)n(Cc4ccco4)c(=O)c23)C1
- IC50 [1]: 170 nM
- IC50 [2]: 4500 nM
- Ratio IC50 (Homo sapiens [3]): 24

SMILES: CC(=O)N1CCc2c(sc3nc(SCC(=O)Nc4cccc(C)c4)n(Cc4ccco4)c(=O)c23)C1
- IC50 [1]: 440 nM
- Ratio IC50 (Homo sapiens [3]): 12

SMILES: CC(=O)N1CCc2c(sc3nc(SCC(=O)Nc4ccc(C)c(F)c4)n(Cc4ccco4)c(=O)c23)C1
- IC50 [1]: 210 nM
- IC50 [2]: 4200 nM
- Ratio IC50 (Homo sapiens [3]): 31

SMILES: CC(=O)N1CCc2c(sc3nc(SCC(=O)Nc4ccccc4)n(-c4ccccc4)c(=O)c23)C1
- IC50 [1]: 5500 nM
- IC50 [2]: > 25000 nM
- Ratio IC50 (Homo sapiens [3]): > 5

SMILES: CC(=O)N1CCc2c(sc3nc(SCC(=O)Nc4ccc(F)cc4F)n(Cc4ccco4)c(=O)c23)C1
- IC50 [1]: 380 nM
- IC50 [2]: 3500 nM
- Ratio IC50 (Homo sapiens [3]): 13

SMILES: CC(=O)N1CCc2c(sc3nc(SCC(=O)Nc4ccccc4F)n(Cc4ccco4)c(=O)c23)C1
- IC50 [1]: 210 nM
- IC50 [2]: 7500 nM
- Ratio IC50 (Homo sapiens [3]): 20

SMILES: CC(=O)N1CCc2c(sc3nc(SCC(=O)Nc4ccccc4Cl)n(Cc4ccco4)c(=O)c23)C1
- IC50 [1]: 100 nM
- IC50 [2]: 2800 nM
- Ratio IC50 (Homo sapiens [3]): 23

SMILES: CC(=O)N1CCc2c(sc3nc(SCC(=O)Nc4ccc(Cl)cc4)n(Cc4ccco4)c(=O)c23)C1
- IC50 [1]: 530 nM
- IC50 [2]: 4500 nM
- Ratio IC50 (Homo sapiens [3]): 8

SMILES: Cc1nn(CCO)c(C)c1-c1c(C)c(-c2ccc(O)cc2)nc(N)c1C#N
- IC50 [10]: 8200 nM
- IC50 [4]: 900 nM
- Ratio IC50 (Homo sapiens [5]): 9

SMILES: CC(=O)N1CCc2c(sc3nc(SCC(=O)Nc4cccc(Cl)c4)n(Cc4ccco4)c(=O)c23)C1
- IC50 [1]: 490 nM
- IC50 [2]: 3100 nM
- Ratio IC50 (Homo sapiens [3]): 9

SMILES: Cc1ccc(-c2c(C)noc2C)cc1S(=O)(=O)Nc1cccc(C)c1C
- IC50 [4]: 900 nM
- Ratio IC50 (Homo sapiens [5]): 12

SMILES: CC(=O)c1ccc(NC(=O)CSc2nc3sc4c(c3c(=O)n2Cc2ccco2)CCN(C(C)=O)C4)cc1
- IC50 [1]: 320 nM
- IC50 [2]: 1500 nM
- Ratio IC50 (Homo sapiens [3]): 4

SMILES: CC(=O)N1CCc2c(sc3nc(SCC(=O)Nc4cc(Cl)ccc4C)n(-c4ccccc4)c(=O)c23)C1
- IC50 [1]: 6300 nM
- IC50 [2]: > 25000 nM
- Ratio IC50 (Homo sapiens [3]): > 4

SMILES: COc1cc(OC)c2c(=O)[nH]c(-c3cc(C)c(OCCO)c(C)c3)nc2c1 [APABETALONE]
- Activity (MOLM-14 [11]): Dose-Dependent Effect
- EC50 (NB-4): > 5000 nM
- EC50 (K562 [12]): > 5000 nM
- EC50 (CCRF-CEM): > 5000 nM
- EC50 (MOLM-14 [13]): 6700 nM

SMILES: COc1ccccc1NC(=O)CSc1nc2sc3c(c2c(=O)n1Cc1ccco1)CCN(C(C)=O)C3
- IC50 [1]: 72 nM
- Ratio IC50 (Homo sapiens [3]): 31

SMILES: CC(=O)N1CCc2c(sc3nc(SCC(=O)Nc4ccccc4)n(Cc4ccco4)c(=O)c23)C1
- IC50 [1]: 140 nM
- IC50 [2]: 14000 nM
- Ratio IC50 (Homo sapiens [3]): 100

SMILES: CC(=O)Nc1c(F)cc(C(=O)N[C@H]2CC[C@H](O)CC2)cc1O[C@@H](C)c1ccccc1 [GSK046]
- IC50 [14]: 3600 nM
- Activity (MOLM-14 [11]): Dose-Dependent Effect
- EC50 (NB-4): > 5000 nM
- EC50 (K562 [12]): > 5000 nM
- EC50 (CCRF-CEM): > 5000 nM
- EC50 (MOLM-14 [13]): 14000 nM

SMILES: CC(=O)N1CCc2c(sc3nc(SCC(=O)Nc4ccc(F)c(Cl)c4)n(Cc4ccco4)c(=O)c23)C1
- IC50 [1]: 740 nM
- IC50 [2]: 3800 nM
- Ratio IC50 (Homo sapiens [3]): 7

SMILES: Cc1sc2c(c1C)C(c1ccc(Cl)cc1)=N[C@@H](CC(=O)Nc1ccc(O)cc1)c1nnc(C)n1-2 [BIRABRESIB]
- Activity (MOLM-14 [11]): Dose-Dependent Effect
- Activity (K562 [15]): Active
- EC50 (MOLM-14 [13]): 80 nM

SMILES: O=C1c2ccc(Oc3cccc(Oc4ccc5c(c4)C(=O)N(c4ccc(O)cc4)C5=O)c3)cc2C(=O)N1c1ccc(O)cc1
- IC50 [4]: 3200 nM
- Ratio IC50 (Homo sapiens [5]): 0.4

SMILES: COc1cc(C(=O)C(=Cc2ccncc2)c2nc3ccccc3o2)cc(OC)c1OC
- IC50 [4]: 800 nM
- Ratio IC50 (Homo sapiens [5]): 5.4

SMILES: Cc1cc(F)ccc1NS(=O)(=O)c1cc(-c2c(C)noc2C)ccc1C
- IC50 [4]: 1500 nM
- Ratio IC50 (Homo sapiens [5]): 4.9

SMILES: CC(=O)N1CCc2c(sc3nc(SCC(=O)Nc4ccccc4C)n(Cc4ccco4)c(=O)c23)C1
- IC50 [1]: 220 nM
- IC50 [2]: 3000 nM
- Ratio IC50 (Homo sapiens [3]): 15

SMILES: CC(=O)N1CCc2c(sc3nc(SCC(=O)Nc4ccc(F)cc4)n(Cc4ccco4)c(=O)c23)C1
- IC50 [1]: 420 nM
- IC50 [2]: 3600 nM
- Ratio IC50 (Homo sapiens [3]): 7

SMILES: CCOc1ccc(NC(=O)CSc2nc3sc4c(c3c(=O)n2Cc2ccco2)CCN(C(C)=O)C4)cc1
- IC50 [1]: 880 nM
- IC50 [2]: 1300 nM
- Ratio IC50 (Homo sapiens [3]): 4

SMILES: COc1ccc(NC(=O)CSc2nc3sc4c(c3c(=O)n2Cc2ccco2)CCN(C(C)=O)C4)cc1
- IC50 [1]: 570 nM
- IC50 [2]: 2200 nM
- Ratio IC50 (Homo sapiens [3]): 6

SMILES: CCOc1ccccc1NC(=O)CSc1nc2sc3c(c2c(=O)n1Cc1ccco1)CCN(C(C)=O)C3
- IC50 [1]: 150 nM
- IC50 [2]: 4400 nM
- Ratio IC50 (Homo sapiens [3]): 23

SMILES: CCc1cccc(C)c1NS(=O)(=O)c1cc(-c2c(C)noc2C)ccc1C
- IC50 [4]: 1100 nM
- Ratio IC50 (Homo sapiens [5]): 7.8

SMILES: CSc1cccc(NC(=O)CSc2nc3sc4c(c3c(=O)n2Cc2ccco2)CCN(C(C)=O)C4)c1
- IC50 [1]: 410 nM
- IC50 [2]: 6500 nM
- Ratio IC50 (Homo sapiens [3]): 11

SMILES: CC(=O)N1c2ccc(C3=CCNCC3)cc2N(Cc2ccccc2CO)C[C@@H]1C1CC1
- Kd [16]: 3000 nM
- Kd [17]: 63 nM
